Experimental data from PubChem BioAssay (NCI).
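Growth conditions: 96-well plates. Treatment: test compound, 48 hours, 5 concentrations. Analysis: linear interpolation between bracketing concentrations; unreached endpoints set to highest concentration. GI50 is the concentration that inhibits growth by half. Definition used: TGI = concentration required for complete inhibition of growth.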

Columns and labels:
Assay in all cases: NCI-60 cell line screen, 48 h
[1] = tested on: RPMI-8226 leukemia
[2] = tested on: MCF7 breast
[3] = tested on: UO-31 renal
[4] = tested on: SNB-19 CNS
[5] = tested on: SF-539 CNS
[6] = tested on: OVCAR-5 ovarian
[7] = tested on: CAKI-1 renal
[8] = tested on: PC-3 prostate
[9] = tested on: MDA-N
[10] = tested on: MALME-3M melanoma
[11] = tested on: EKVX NSCLC
[12] = tested on: SK-MEL-5 melanoma
[13] = tested on: CCRF-CEM leukemia
[14] = tested on: SW-620 colon
[15] = tested on: MOLT-4 leukemia
[16] = tested on: T-47D breast
[17] = tested on: DU-145 prostate
[18] = tested on: M14 melanoma
[19] = tested on: SK-MEL-28 melanoma
[20] = tested on: MDA-MB-231 breast
[21] = tested on: 786-0 renal
[22] = tested on: OVCAR-3 ovarian
[23] = tested on: HCT-15 colon
[24] = tested on: MDA-MB-435
[25] = tested on: DMS 114 small cell lung
[26] = tested on: HCT-116 colon
[27] = tested on: ACHN renal
[28] = tested on: HOP-62 NSCLC
[29] = tested on: NCI/ADR-RES ovarian
[30] = tested on: SNB-75 CNS
[31] = tested on: HL-60(TB) leukemia
[32] = tested on: SK-MEL-2 melanoma
[33] = tested on: OVCAR-4 ovarian
[34] = tested on: K-562 leukemia
[35] = tested on: A549 NSCLC
[36] = tested on: IGROV1 ovarian
[37] = tested on: UACC-257 melanoma
[38] = tested on: SN12C renal
[39] = tested on: A498 renal
[40] = tested on: BT-549 breast
[41] = tested on: HOP-92 NSCLC
[42] = tested on: HCC-2998 colon
[43] = tested on: OVCAR-8 ovarian
[44] = tested on: SR leukemia
[45] = tested on: NCI-H226 lung
[46] = tested on: HS 578T breast
[47] = tested on: SK-OV-3 ovarian
[48] = tested on: NCI-H23 lung
[49] = tested on: SF-295 CNS
[50] = tested on: LOX IMVI melanoma
[51] = tested on: NCI-H460 lung
[52] = tested on: NCI-H522 lung
[53] = tested on: U251 CNS
[54] = tested on: COLO 205 colon
[55] = tested on: SF-268 CNS
[56] = tested on: RXF 393 renal
[57] = tested on: HT29 colon
[58] = tested on: UACC-62 melanoma
[59] = tested on: TK-10 renal
[60] = tested on: KM12 colon

## CCSC(=O)N1c2ccc(OC)cc2C=CC1C#N (stereo unspecified)
[1]
  TGI: 689 µM
[2]
  GI50: 0.000805 µM
  TGI: > 1000 µM
[3]
  TGI: > 1000 µM
[4]
  GI50: 6.08 µM
  TGI: > 1000 µM
[5]
  TGI: 0.00582 µM
[6]
  GI50: 0.596 µM
  TGI: > 1000 µM
[7]
  TGI: 737 µM
[8]
  GI50: 0.214 µM
  TGI: > 1000 µM
[9]
  GI50: 0.0003 µM
  TGI: 0.00138 µM
[10]
  TGI: > 1000 µM
[11]
  TGI: > 1000 µM
[12]
  TGI: 0.224 µM
[13]
  TGI: > 1000 µM
[14]
  TGI: 199 µM
[15]
  TGI: > 1000 µM
[16]
  TGI: 734 µM
[17]
  TGI: 0.0105 µM
[18]
  TGI: > 1000 µM
[19]
  TGI: > 1000 µM
[20]
  GI50: 0.529 µM
[21]
  TGI: 121 µM
[22]
  TGI: 0.0062 µM
[23]
  GI50: 0.00168 µM
[24]
  GI50: 0.000369 µM
  TGI: 0.00553 µM
[25]
  TGI: 1.02 µM
[26]
  TGI: 0.0382 µM
[27]
  TGI: > 1000 µM
[28]
  TGI: 0.0467 µM
[29]
  GI50: 0.00254 µM
[30]
  GI50: 0.231 µM
  TGI: > 1000 µM
[31]
  TGI: 0.00522 µM
[32]
  TGI: 7.43 µM
[33]
  TGI: > 1000 µM
[34]
  TGI: > 1000 µM
[35]
  TGI: > 1000 µM
[36]
  TGI: > 1000 µM

## O=C(O)CCc1ccc(-c2ccccc2)[nH]1
[37]
  TGI: > 100 µM
[38]
  TGI: > 100 µM
[39]
  TGI: > 100 µM
[1]
  TGI: > 100 µM
[2]
  TGI: > 100 µM
[3]
  TGI: > 100 µM
[4]
  TGI: > 100 µM
[40]
  TGI: > 100 µM
[5]
  TGI: > 100 µM
[6]
  TGI: > 100 µM
[7]
  TGI: > 100 µM
[8]
  TGI: > 100 µM
[41]
  TGI: > 100 µM
[9]
  TGI: > 100 µM
[42]
  TGI: > 100 µM
[43]
  TGI: > 100 µM
[44]
  TGI: > 100 µM
[45]
  TGI: > 100 µM
[46]
  TGI: > 100 µM
[47]
  TGI: > 100 µM
[10]
  TGI: > 100 µM
[11]
  TGI: > 100 µM
[48]
  TGI: > 100 µM
[12]
  TGI: > 100 µM
[49]
  TGI: > 100 µM
[13]
  TGI: > 100 µM
[14]
  TGI: > 100 µM
[15]
  TGI: > 100 µM
[16]
  TGI: > 100 µM
[17]
  TGI: > 100 µM
[18]
  TGI: > 100 µM
[19]
  TGI: > 100 µM
[20]
  TGI: > 100 µM
[50]
  TGI: > 100 µM
[21]
  TGI: > 100 µM
[51]
  TGI: > 100 µM
[22]
  TGI: > 100 µM
[52]
  TGI: > 100 µM
[23]
  TGI: > 100 µM
[53]
  TGI: > 100 µM
[54]
  TGI: > 100 µM
[24]
  TGI: > 100 µM
[55]
  TGI: > 100 µM
[56]
  TGI: > 100 µM
[26]
  TGI: > 100 µM
[57]
  TGI: > 100 µM
[27]
  TGI: > 100 µM
[28]
  TGI: > 100 µM
[29]
  TGI: > 100 µM
[58]
  TGI: > 100 µM
[30]
  TGI: > 100 µM
[31]
  TGI: > 100 µM
[32]
  TGI: > 100 µM
[59]
  TGI: > 100 µM
[33]
  TGI: > 100 µM
[34]
  TGI: > 100 µM
[60]
  TGI: > 100 µM
[35]
  TGI: > 100 µM
[36]
  TGI: > 100 µM

## N#CC12CC3=C(N=C1NC1=C(CCc4ccccc41)C2)c1ccccc1CC3 (stereo unspecified)
[37]
  TGI: > 84.4 µM
[38]
  TGI: > 81.9 µM
[39]
  TGI: 7.97 µM
[1]
  TGI: 4.15 µM
[2]
  TGI: > 38.3 µM
[3]
  TGI: 35.1 µM
[4]
  TGI: 73.5 µM
[40]
  TGI: 65.3 µM
[5]
  TGI: 7.22 µM
[6]
  TGI: > 100 µM
[7]
  TGI: 77.2 µM
[8]
  TGI: > 54.5 µM
[41]
  TGI: 41.4 µM
[9]
  TGI: 0.809 µM
[42]
  TGI: 4.35 µM
[43]
  TGI: 15.7 µM
[44]
  TGI: 0.694 µM
[45]
  TGI: 29.7 µM
[46]
  TGI: > 34.5 µM
[47]
  TGI: 27.6 µM
[10]
  TGI: 37.1 µM
[11]
  TGI: > 100 µM
[48]
  TGI: 39.2 µM
[12]
  TGI: > 35.5 µM
[49]
  TGI: 12 µM
[13]
  TGI: 3.38 µM
[14]
  TGI: > 42.4 µM
[15]
  TGI: 7 µM
[16]
  TGI: > 96 µM
[17]
  TGI: > 85.1 µM
[18]
  TGI: 17.6 µM
[19]
  TGI: 44.3 µM
[20]
  TGI: > 57.5 µM
[50]
  TGI: 13.9 µM
[21]
  TGI: 43.8 µM
[51]
  TGI: > 100 µM
[22]
  TGI: 8.13 µM
[52]
  TGI: 6.47 µM
[23]
  TGI: 51 µM
[53]
  TGI: 17.1 µM
[54]
  TGI: 5.55 µM
[24]
  TGI: 0.923 µM
[55]
  TGI: > 86.4 µM
[56]
  TGI: > 100 µM
[26]
  TGI: 21.7 µM
[57]
  TGI: 6.52 µM
[27]
  TGI: > 100 µM
[28]
  TGI: 53 µM
[29]
  TGI: 29.5 µM
[58]
  TGI: 42.6 µM
[30]
  TGI: 11 µM
[31]
  TGI: 1.15 µM
[32]
  TGI: 23.6 µM
[59]
  TGI: 65.8 µM
[33]
  TGI: > 78.6 µM
[34]
  TGI: 1.36 µM
[60]
  TGI: 20.4 µM
[35]
  TGI: > 100 µM
[36]
  TGI: > 40.3 µM
